According to PubChem BioAssay AID256 (DTP/NCI, 2004):
“And” between values parts separate entries of the source, which are not always exact repeats. Identical values can stand only once. Toxic doses and inconclusive results are not listed.

System: CD2F1 mice, L1210 leukemia ip, survival T/C
Test: NCI In Vivo Anticancer Drug Screen. Data for tumor model L1210 Leukemia (intraperitoneal) in CD2F1 (CDF1) mice
Details: higher = longer survival
Summary of the method: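 Each value reflects a quotient of treated over vehicle control outcomes in mice with a transplanted tumor.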

[1] = endpoint: mean survival time, dose: 12.5 mg/kg/injection, schedule: Q01DX009 (ip), vehicle: saline
[2] = endpoint: mean survival time, dose: 25.0 mg/kg/injection, schedule: Q04DX003 (ip), vehicle: saline
[3] = endpoint: mean survival time, dose: 100.0 mg/kg/injection, schedule: Q04DX003 (ip), vehicle: saline
[4] = endpoint: mean survival time, dose: 100.0 mg/kg/injection, schedule: Q01DX001 (ip), vehicle: saline with Tween-80
[5] = endpoint: mean survival time, dose: 200.0 mg/kg/injection, schedule: Q01DX001 (ip), vehicle: saline with Tween-80
[6] = endpoint: mean survival time, dose: 100.0 mg/kg/injection, schedule: Q01DX009 (ip), vehicle: saline with Tween-80
[7] = endpoint: mean survival time, dose: 50.0 mg/kg/injection, schedule: Q04DX003 (ip), vehicle: saline
[8] = endpoint: mean survival time, dose: 200.0 mg/kg/injection, schedule: Q04DX003 (ip), vehicle: saline
[9] = endpoint: mean survival time, dose: 400.0 mg/kg/injection, schedule: Q04DX003 (ip), vehicle: saline
[10] = endpoint: mean survival time, dose: 200.0 mg/kg/injection, schedule: Q01DX009 (ip), vehicle: saline with Tween-80
[11] = endpoint: mean survival time, dose: 400.0 mg/kg/injection, schedule: Q01DX009 (ip), vehicle: saline with Tween-80

CCCCN(CCCC)CCCN(CCCOS(C)(=O)=O)CCCOS(C)(=O)=O
T/C (endpoint: mean survival time, dose: 12.0 mg/kg/injection, schedule: Q01DX001 (ip), vehicle: saline): 110 % of control | T/C [1]: 121 % of control | T/C (endpoint: mean survival time, dose: 12.5 mg/kg/injection, schedule: Q04DX003 (ip), vehicle: saline): 110 % of control | T/C (endpoint: mean survival time, dose: 25.0 mg/kg/injection, schedule: Q01DX001 (ip), vehicle: saline): 114 % of control | T/C [2]: 117 % of control | T/C (endpoint: mean survival time, dose: 50.0 mg/kg/injection, schedule: Q01DX009 (ip), vehicle: saline): 162 % of control | T/C (endpoint: mean survival time, dose: 100.0 mg/kg/injection, schedule: Q01DX009 (ip), vehicle: saline): 102 % of control | T/C [3]: 160 % of control | T/C (endpoint: mean survival time, dose: 200.0 mg/kg/injection, schedule: Q01DX001 (ip), vehicle: saline): 90 % of control

CCOc1ccc(-n2c(O)c(N=Nc3ccccc3)c(=O)n(-c3ccccc3)c2=S)cc1
T/C [4]: 92 % of control | T/C [5]: 102 % of control

Oc1ccc2ccccc2c1
T/C (endpoint: mean survival time, dose: 10.0 mg/kg/injection, schedule: Q04DX003 (ip), vehicle: Klucel (hydroxypropylcellulose) (HPC)): 101 % of control | T/C (endpoint: mean survival time, dose: 20.0 mg/kg/injection, schedule: Q04DX003 (ip), vehicle: Klucel (hydroxypropylcellulose) (HPC)): 96 % of control | T/C (endpoint: mean survival time, dose: 40.0 mg/kg/injection, schedule: Q04DX003 (ip), vehicle: Klucel (hydroxypropylcellulose) (HPC)): 96 % of control

C[n+]1cccc(C(=O)c2ccccc2)c1
T/C (endpoint: mean survival time, dose: 75.0 mg/kg/injection, schedule: Q01DX001 (ip), vehicle: other): 100 % of control

O=C(OC/C=C/CCl)c1ccc([N+](=O)[O-])cc1
T/C (endpoint: mean survival time, dose: 25.0 mg/kg/injection, schedule: Q01DX009 (ip), vehicle: saline with Tween-80): 95 % of control | T/C (endpoint: mean survival time, dose: 50.0 mg/kg/injection, schedule: Q01DX009 (ip), vehicle: saline with Tween-80): 94 % of control | T/C [6]: 91 % of control and 94 % of control

CC(=O)N(N)c1ccccc1
T/C [4]: 105 % of control | T/C [5]: 109 % of control | T/C (endpoint: mean survival time, dose: 400.0 mg/kg/injection, schedule: Q01DX001 (ip), vehicle: saline with Tween-80): 105 % of control

O=Cc1nccc2c1[nH]c1ccccc12
T/C (endpoint: mean survival time, dose: 100.0 mg/kg/injection, schedule: Q04DX003 (ip), vehicle: saline with Tween-80): 95 % of control | T/C (endpoint: mean survival time, dose: 200.0 mg/kg/injection, schedule: Q04DX003 (ip), vehicle: saline with Tween-80): 104 % of control | T/C (endpoint: mean survival time, dose: 400.0 mg/kg/injection, schedule: Q04DX003 (ip), vehicle: saline with Tween-80): 100 % of control

COc1cc(O)cc(OC)c1
T/C [2]: 103 % of control | T/C [7]: 102 % of control | T/C [3]: 100 % of control

O=C(O)C1CCCC(C(=O)O)[N-]1.O=C(O)C1CCCC(C(=O)O)[N-]1.[Cr+2] (configuration not stated)
T/C [3]: 104 % of control | T/C [8]: 101 % of control | T/C [9]: 104 % of control

CN(C)CCCC1c2ccccc2Oc2ccc(C(F)(F)F)cc21 (configuration not stated)
T/C (endpoint: mean survival time, dose: 1.56 mg/kg/injection, schedule: Q01DX009 (ip), vehicle: saline): 96 % of control | T/C (endpoint: mean survival time, dose: 3.12 mg/kg/injection, schedule: Q01DX009 (ip), vehicle: saline): 100 % of control | T/C (endpoint: mean survival time, dose: 6.25 mg/kg/injection, schedule: Q01DX009 (ip), vehicle: saline): 94 % of control | T/C [1]: 100 % of control | T/C (endpoint: mean survival time, dose: 25.0 mg/kg/injection, schedule: Q01DX009 (ip), vehicle: saline): 103 % of control

CN1COc2cc3c(cc2C1)OCN(C)C3
T/C [4]: 100 % of control | T/C [5]: 100 % of control

c1cc2c3c(c1)CCC3CCC2 (configuration not stated)
T/C [6]: 96 % of control | T/C [10]: 101 % of control | T/C [11]: 90 % of control

COc1ccc(OC)c(NC(=O)Oc2ccc(F)cc2Cl)c1
T/C [6]: 101 % of control | T/C [10]: 104 % of control | T/C [11]: 102 % of control

COc1cc(/C=N\Nc2ccccc2[N+](=O)[O-])cc(OC)c1OC
T/C [6]: 93 % of control | T/C [10]: 103 % of control | T/C [11]: 98 % of control

CN(CCC#N)CCC#N
T/C [3]: 101 % of control | T/C [8]: 96 % of control | T/C [9]: 101 % of control

NC(CCC(=O)NC(CS)C(=O)NCC(=O)O)C(=O)O (configuration not stated)
T/C (endpoint: median survival time, dose: 25.0 mg/kg/injection, schedule: Q01DX009 (ip), vehicle: saline): 100 % of control | T/C (endpoint: median survival time, dose: 50.0 mg/kg/injection, schedule: Q01DX009 (ip), vehicle: saline): 110 % of control | T/C (endpoint: median survival time, dose: 100.0 mg/kg/injection, schedule: Q01DX009 (ip), vehicle: saline): 104 % of control | T/C (endpoint: median survival time, dose: 200.0 mg/kg/injection, schedule: Q01DX009 (ip), vehicle: saline): 104 % of control | T/C (endpoint: median survival time, dose: 400.0 mg/kg/injection, schedule: Q01DX009 (ip), vehicle: saline): 94 % of control

CC(C(=O)c1ccccc1)N(C)Cc1ccccc1 (configuration not stated)
T/C [7]: 98 % of control | T/C [3]: 96 % of control | T/C [8]: 93 % of control
